Values of other authors as cited in US20180273780A1, “WATER-BASED INK COMPOSITION FOR INK JET RECORDING AND COLORING MATERIAL LIQUID” (Seiko Epson Corporation, priority 2017, published 2018).

Row | water-octanol partition coefficient (log P) | Compound
1 | 2.4 | CCCCC(CC)COCCOCCO (stereo not drawn) [diethylene glycol-2-ethylhexyl ether]
2 | 1.36 | CCCCCCOCC(O)CO (stereo not drawn) [3-(hexyloxy)-1,2-propanediol]
3 | 0.67 | CCCN1CCCC1=O [1-propyl-2-pyrrolidone]
4 | 0.97 | tritrimethylolpropane
5 | 0.56 | CCCCOCCOCCO [butyl diglycol]

Row | Compound | water-octanol partition coefficient (log P)
6 | CCCCOCCC(=O)N(C)C [3-butoxy-N,N-dimethylpropanamide] | 0.86
